Measurements as given in publication PMC10574185, “Encapsulation and Biological Activity of Hesperetin Derivatives with HP-β-CD” (Molecules, 2023).
In brackets after ≈: the same amount, converted by molar mass. Like-named read-outs stand apart in the source and are kept apart here.

Legend:
[1] = Phase solubility studies with HP-β-CD; type: physicochemical
Experimental: The purpose of this part of the study was to determine the solubility of compounds of hesperetin and its Schiff bases (HHSB, HIN, and HTSC) in aqueous solution at different pHs and temperatures, and the effect of their inclusion in modified HP-β-CD on the aqueous solubility of these compounds at different pH values.
The effect of the presence of HP-β-CD at different temperatures (25, 37, and 60 °C) was determined by developing phase solubility diagrams.
In accordance with the methodology described in Section 3.4, excess amounts of each tested substance were added to aqueous solution with increasing concentration of HP-β-CD up to 16 mM, respectively, in 2 mL of 100 mM sodium acetate buffer (pH 3.6), 100 mM sodium phosphate buffer (pH 6.5) or 100 mM sodium borate buffer (pH 8.5).
Phase solubility studies were conducted according to [64] with some modifications. Excess amounts of each tested substance were added to aqueous solution with increasing concentration of HP-β-CD up to 16 mM, in 2 mL of 100 mM sodium acetate buffer (pH 3.6), 100 mM sodium phosphate buffer (pH 6.5), or 100 mM sodium borate buffer (pH 8.5), respectively. The samples were maintained in an ultrasonic bath at various temperatures (25, 37, and 60 °C) for 60 min to reach equilibrium. The aqueous solutions were then filtered through 0.45 µm acetate cellulose (CA) membrane filter and diluted. The tested compound concentration on each clear filtrate was spectrophotometrically determined by measuring at their wavelength maximum.
The complexation constant (Kc) between studied molecules and HP-β-CD was determined by using Equation (1):(1) Kc=slope/S0 (1−slope) where S0 means the water solubility of the studied substance, and “slope” means the slope of the phase solubility diagram.
Complexation efficiency was calculated from the slope of the phase solubility diagram using Equation (2):(2) CE=S0×Kc=slope/1−slope
The CE was also applied to evaluate the molar ratio in solution of tested systems using Equation (3):(3) Compound:HP−β−CD=1:(1+1/CE)

[2] = ABTS^•+ radical cation decolorization assay; details: concentration 0.1 mg/mL, mean ± SD
Experimental: To evaluate the antioxidant ability of the tested systems, antioxidant analysis was performed. Antioxidants can scavenge hydroxyl radicals in two ways: by reacting directly with hydroxyl radicals (DPPH^•, ABTS^•+) or indirectly inhibiting the formation of hydroxyl radicals by chelating metal ions involved in the production of hydroxyl radicals. The antioxidant activity of the systems studied was investigated by using DPPH^• scavenging, ABTS^•+ scavenging ability, and Fe^2+-chelating ability. In this study, the antioxidant activity of pure hesperetin and its Schiff bases (HHSB, HIN, and HTSC) and HP-β-CD complexes were compared, and the positive control was Trolox.
Antioxidant activity using ABTS^•+ cation radical scavenging was determined according to a modified method. ABTS solution (2.5 mM) was mixed with 1.0 mM potassium persulfate solution and left at room temperature in the dark for 12-24 h. After this time, the absorbance of the finished ABTS^•+ solution was corrected with ethanol to 0.70 ± 0.02 at 745 nm. A total of 100 µL of the sample was reacted for 5 min with 2 mL of ABTS^•+ solution (A745 nm = 0.70 ± 0.02). The absorbance value of the reaction mixture was measured at 745 nm. […] Scavenging activity (%) = [1 − (Asample − Ablank)/Acontrol] × 100%(4) where Acontrol is the absorbance value of the control (ABTS^•+ solution with water), Ablank is the absorbance value of samples mixed with anhydrous ethanol, and Asample is the absorbance value of the added test sample to ABTS^•+ solution at 745 nm, respectively.

[3] = test system: Staphylococcus aureus ATCC 25923; experiment: Minimal inhibition concentration (dilution + diffusion-well); type: cell-based; details: ATCC25923, 37 °C, 18 h
Experimental: The MIC was performed for compounds and strains sensitive to their action in the antagonistic test. Minimum inhibitory concentration was determined by combining the dilution method with the diffusion-well method. Test compounds at a concentration of 500 μM were prepared in 5% (w/w) DMSO. Surface layer of microorganisms, against which antagonistic activity was noted, were prepared in the same way as for the antagonistic test. Then, two-fold sequential dilutions of the test compounds in the range of 500 µM to 62.5 µM were prepared. Wells with a diameter of 8 mm cut in the Mueller–Hinton Agar (Merck, Darmstadt, Germany) with the test strain were added with 50 µL of the prepared dilutions, which corresponded to the following concentrations of the tested compounds: […], 1.25 mM, 0.625 mM, and […]. Petri dishes prepared in this way were incubated at 37 °C for 18 h. After a given time, the MIC value was read. The MIC concentration expressed in µM was the first concentration of the tested compounds at which growth inhibition of the test strain was observed.

[4] = aqueous buffer, thermodynamic from solid, 25 °C, pH 3.6 sodium acetate buffer, without cyclodextrin, read-out: solubility without HP-β-CD (value in brackets) (converted)
[5] = aqueous buffer, thermodynamic from solid, 25 °C, pH 6.5 sodium phosphate buffer, without cyclodextrin, read-out: solubility without HP-β-CD (value in brackets) (converted)
[6] = aqueous buffer, thermodynamic from solid, 25 °C, pH 8.5 sodium borate buffer, without cyclodextrin, read-out: solubility without HP-β-CD (value in brackets) (converted)
[7] = aqueous buffer, thermodynamic from solid, 37 °C, pH 3.6 sodium acetate buffer, without cyclodextrin, read-out: solubility without HP-β-CD (value in brackets) (converted)
[8] = aqueous buffer, thermodynamic from solid, 37 °C, pH 6.5 sodium phosphate buffer, without cyclodextrin, read-out: solubility without HP-β-CD (value in brackets) (converted)
[9] = aqueous buffer, thermodynamic from solid, 37 °C, pH 8.5 sodium borate buffer, without cyclodextrin, read-out: solubility without HP-β-CD (value in brackets) (converted)
[10] = aqueous buffer, thermodynamic from solid, 60 °C, pH 3.6 sodium acetate buffer, without cyclodextrin, read-out: solubility without HP-β-CD (value in brackets) (converted)
[11] = aqueous buffer, thermodynamic from solid, 60 °C, pH 6.5 sodium phosphate buffer, without cyclodextrin, read-out: solubility without HP-β-CD (value in brackets) (converted)
[12] = aqueous buffer, thermodynamic from solid, 60 °C, pH 8.5 sodium borate buffer, without cyclodextrin, read-out: solubility without HP-β-CD (value in brackets) (converted)
[13] = thermodynamic from solid, 25 °C, pH 3.6 sodium acetate buffer, with HP-β-CD, read-out: S0 (solubility with HP-β-CD)
[14] = thermodynamic from solid, 25 °C, pH 6.5 sodium phosphate buffer, with HP-β-CD, read-out: S0 (solubility with HP-β-CD)
[15] = thermodynamic from solid, 25 °C, pH 8.5 sodium borate buffer, with HP-β-CD, read-out: S0 (solubility with HP-β-CD)
[16] = thermodynamic from solid, 37 °C, pH 3.6 sodium acetate buffer, with HP-β-CD, read-out: S0 (solubility with HP-β-CD)
[17] = thermodynamic from solid, 37 °C, pH 6.5 sodium phosphate buffer, with HP-β-CD, read-out: S0 (solubility with HP-β-CD)
[18] = thermodynamic from solid, 37 °C, pH 8.5 sodium borate buffer, with HP-β-CD, read-out: S0 (solubility with HP-β-CD)
[19] = thermodynamic from solid, 60 °C, pH 3.6 sodium acetate buffer, with HP-β-CD, read-out: S0 (solubility with HP-β-CD)
[20] = thermodynamic from solid, 60 °C, pH 6.5 sodium phosphate buffer, with HP-β-CD, read-out: S0 (solubility with HP-β-CD)
[21] = thermodynamic from solid, 60 °C, pH 8.5 sodium borate buffer, with HP-β-CD, read-out: S0 (solubility with HP-β-CD)

## COc1ccc(C2C/C(=N\NC(=O)c3ccncc3)c3c(O)cc(O)cc3O2)cc1O (racemic) [HIN]
[1]; 25 °C, pH 3.6, with HP-β-CD
  CE complexation efficiency: 0.7%
  Kc complexation constant: 102 ± 43 M⁻¹
[1]; 25 °C, pH 6.5, with HP-β-CD
  CE complexation efficiency: 0.2%
  Kc complexation constant: 39 ± 3.6 M⁻¹
[1]; 25 °C, pH 8.5, with HP-β-CD
  CE complexation efficiency: 1.3%
  Kc complexation constant: 143 ± 1.6 M⁻¹
[1]; 37 °C, pH 3.6, with HP-β-CD
  CE complexation efficiency: 1.3%
  Kc complexation constant: 145 ± 13 M⁻¹
[1]; 37 °C, pH 6.5, with HP-β-CD
  CE complexation efficiency: 0.04%
  Kc complexation constant: 25 ± 3.9 M⁻¹
[1]; 37 °C, pH 8.5, with HP-β-CD
  CE complexation efficiency: 0.04%
  Kc complexation constant: 28 ± 3.9 M⁻¹
[1]; 60 °C, pH 3.6
  increase of solubility with HP-β-CD: five-fold
[1]; 60 °C, pH 3.6, with HP-β-CD
  CE complexation efficiency: 0.3%
  Kc complexation constant: 62 ± 1.7 M⁻¹
[1]; 60 °C, pH 6.5
  increase of solubility with HP-β-CD: five-fold
[1]; 60 °C, pH 6.5, with HP-β-CD
  CE complexation efficiency: 0.3%
  Kc complexation constant: 61 ± 2.6 M⁻¹
[1]; 60 °C, pH 8.5, with HP-β-CD
  CE complexation efficiency: 3.7%
  Kc complexation constant: 132 ± 23 M⁻¹
[1]; aqueous buffer solutions, 25 °C, pH 3.6 to 8.5, read-out: solubility, increasing trend with increasing pH
  solubility at 60 min: 17 to 90 µM (≈ 7.16 to 37.9 µg/mL)
[1]; [4]
  solubility at 60 min: 29 µM (≈ 12.2 µg/mL)
[1]; [5]
  solubility at 60 min: 17 µM (≈ 7.16 µg/mL)
[1]; [6]
  solubility at 60 min: 20 µM (≈ 8.43 µg/mL)
[1]; [7]
  solubility at 60 min: 20 µM (≈ 8.43 µg/mL)
[1]; [8]
  solubility at 60 min: 1 µM (≈ 0.421 µg/mL)
[1]; [9]
  solubility at 60 min: 1 µM (≈ 0.421 µg/mL)
[1]; [10]
  solubility at 60 min: 8 µM (≈ 3.37 µg/mL)
[1]; [11]
  solubility at 60 min: 8 µM (≈ 3.37 µg/mL)
[1]; [12]
  solubility at 60 min: 143 µM (≈ 60.3 µg/mL)
[1]; [13]
  solubility at 60 min: 68 ± 40 µM (≈ 28.7 µg/mL)
[1]; [14]
  solubility at 60 min: 52 ± 24 µM (≈ 21.9 µg/mL)
[1]; [15]
  solubility at 60 min: 90 ± 50 µM (≈ 37.9 µg/mL)
[1]; [16]
  solubility at 60 min: 90 ± 50 µM (≈ 37.9 µg/mL)
[1]; [17]
  solubility at 60 min: 15 ± 9 µM (≈ 6.32 µg/mL)
[1]; [18]
  solubility at 60 min: 14 ± 10 µM (≈ 5.9 µg/mL)
[1]; [19]
  solubility at 60 min: 41 ± 20 µM (≈ 17.3 µg/mL)
[1]; [20]
  solubility at 60 min: 41 ± 20 µM (≈ 17.3 µg/mL)
[1]; [21]
  solubility at 60 min: 283 ± 27 µM (≈ 119 µg/mL)
[2]
  ABTS^•+ antioxidant activity: 31.56 ± 1.6%
[3]
  MIC: 2.5 µM

## COc1ccc(C2CC(=O)c3c(O)cc(O)cc3O2)cc1O (stereo not shown) [Hesperetin, 3′,5,7-Trihydroxy-4′-methoxyflavanone]
[1]; 25 °C, pH 3.6, with HP-β-CD
  CE complexation efficiency: 34.7%
  Kc complexation constant: 3221 ± 358 M⁻¹
[1]; 25 °C, pH 6.5, HP-β-CD at 16 mM
  increase of solubility with HP-β-CD: five-fold
[1]; 25 °C, pH 6.5, with HP-β-CD
  CE complexation efficiency: 248%
  Kc complexation constant: 11933 ± 1949 M⁻¹
[1]; 25 °C, pH 8.5, with HP-β-CD
  CE complexation efficiency: 80.4%
  Kc complexation constant: 2513 ± 143 M⁻¹
[1]; 37 °C, pH 3.6, with HP-β-CD
  CE complexation efficiency: 44.4%
  Kc complexation constant: 3171 ± 887 M⁻¹
[1]; 37 °C, pH 6.5, with HP-β-CD
  CE complexation efficiency: 25%
  Kc complexation constant: 2280 ± 152 M⁻¹
[1]; 37 °C, pH 8.5, with HP-β-CD
  CE complexation efficiency: 19%
  Kc complexation constant: 1703 ± 163 M⁻¹
[1]; 60 °C, pH 3.6, with HP-β-CD
  CE complexation efficiency: 34%
  Kc complexation constant: 2566 ± 144 M⁻¹
[1]; 60 °C, pH 6.5, with HP-β-CD
  CE complexation efficiency: 11%
  Kc complexation constant: 1179 ± 888 M⁻¹
[1]; 60 °C, pH 8.5, with HP-β-CD
  CE complexation efficiency: 37%
  Kc complexation constant: 2365 ± 221 M⁻¹
[1]; [4]
  solubility at 60 min: 50 µM (≈ 15.1 µg/mL)
[1]; [5]
  solubility at 60 min: 49 µM (≈ 14.8 µg/mL)
[1]; [6]
  solubility at 60 min: 280 µM (≈ 84.6 µg/mL)
[1]; [7]
  solubility at 60 min: 80 µM (≈ 24.2 µg/mL)
[1]; [8]
  solubility at 60 min: 85 µM (≈ 25.7 µg/mL)
[1]; [9]
  solubility at 60 min: 98 µM (≈ 29.6 µg/mL)
[1]; [10]
  solubility at 60 min: 95 µM (≈ 28.7 µg/mL)
[1]; [11]
  solubility at 60 min: 82 µM (≈ 24.8 µg/mL)
[1]; [12]
  solubility at 60 min: 120 µM (≈ 36.3 µg/mL)
[1]; [13]
  solubility at 60 min: 108 ± 4 µM (≈ 32.6 µg/mL)
[1]; [14]
  solubility at 60 min: 208 ± 110 µM (≈ 62.9 µg/mL)
[1]; [15]
  solubility at 60 min: 320 ± 32 µM (≈ 96.7 µg/mL)
[1]; [16]
  solubility at 60 min: 140 ± 40 µM (≈ 42.3 µg/mL)
[1]; [17]
  solubility at 60 min: 110 ± 30 µM (≈ 33.3 µg/mL)
[1]; [18]
  solubility at 60 min: 110 ± 10 µM (≈ 33.3 µg/mL)
[1]; [19]
  solubility at 60 min: 130 ± 20 µM (≈ 39.3 µg/mL)
[1]; [20]
  solubility at 60 min: 96 ± 9 µM (≈ 29 µg/mL)
[1]; [21]
  solubility at 60 min: 150 ± 27 µM (≈ 45.3 µg/mL)
[2]
  ABTS^•+ antioxidant activity: 77.42 ± 2.2%
